Laboratory results from PubChem BioAssay AID180 (DTP/NCI, 2004).
Several values for one entry are separate records, joined by “and”; a condition that tells them apart may be missing. Identical values can stand only once.

Tested on: BDF1 mice, Adenocarcinoma 755 s.c., tumor weight T/C
Assay: NCI In Vivo Anticancer Drug Screen. Data for tumor model Adenocarcinoma 755 (subcutaneous) in B6D2F1 (BDF1) mice
Conditions: endpoint: mean tumor weight, higher = larger tumour
Method: The antitumor activity of compounds was measured in mice bearing transplantable tumors. Survival or tumor size were measured and the results are expressed as the measurement made in the treated group (T) divided by the measurement made in the vehicle treated control group (C). The tumor model used in this assay is Adenocarcinoma 755 (subcutaneous) in B6D2F1 (BDF1) mice

[1] = dose: 25.0 mg/kg/injection, schedule: Q01DX011 (ip), vehicle: saline
[2] = dose: 15.0 mg/kg/injection, schedule: Q01DX011 (ip), vehicle: methylcellulose (MC)
[3] = dose: 31.0 mg/kg/injection, schedule: Q01DX011 (ip), vehicle: methylcellulose (MC)
[4] = dose: 62.0 mg/kg/injection, schedule: Q01DX011 (ip), vehicle: methylcellulose (MC)
[5] = dose: 125.0 mg/kg/injection, schedule: Q01DX011 (ip), vehicle: methylcellulose (MC)
[6] = dose: 250.0 mg/kg/injection, schedule: Q01DX011 (ip), vehicle: methylcellulose (MC)
[7] = dose: 30.0 mg/kg/injection, schedule: Q01DX011 (ip), vehicle: carboxymethylcellulose (CMC)
[8] = dose: 60.0 mg/kg/injection, schedule: Q01DX011 (ip), vehicle: carboxymethylcellulose (CMC)
[9] = dose: 25.0 mg/kg/injection, schedule: Q01DX011 (ip), vehicle: other
[10] = dose: 400.0 mg/kg/injection, schedule: Q01DX011 (ip), vehicle: methylcellulose (MC)
[11] = dose: 200.0 mg/kg/injection, schedule: Q01DX011 (ip), vehicle: other
[12] = dose: 300.0 mg/kg/injection, schedule: Q01DX011 (ip), vehicle: other
[13] = dose: 25.0 mg/kg/injection, schedule: Q01DX011 (ip), vehicle: methylcellulose (MC)
[14] = dose: 50.0 mg/kg/injection, schedule: Q01DX011 (ip), vehicle: methylcellulose (MC)
[15] = dose: 100.0 mg/kg/injection, schedule: Q01DX011 (ip), vehicle: methylcellulose (MC)

Question: What does the source list for OC(CBr)C(O)C(O)C(O)CBr (centres undefined)?
Answer: T/C [1]: 48 % of control; T/C (dose: 50.0 mg/kg/injection, schedule: Q01DX011 (ip), vehicle: saline): 64 % of control and 71 % of control; T/C (dose: 100.0 mg/kg/injection, schedule: Q01DX011 (ip), vehicle: saline): 66 % of control and 72 % of control; T/C (dose: 200.0 mg/kg/injection, schedule: Q01DX011 (ip), vehicle: saline): 38 % of control and 50 % of control; T/C (dose: 400.0 mg/kg/injection, schedule: Q01DX011 (ip), vehicle: saline): 29 % of control

Question: Which T/C (dose: 3.25 mg/kg/injection, schedule: Q01DX011 (ip), vehicle: saline) does the source give for C=CC(COC(C)=O)N1CC1 (centres undefined) here?
Answer: 58 % of control and 76 % of control

Question: And the T/C (dose: 3.25 mg/kg/injection, schedule: Q01DX011 (oral), vehicle: saline)?
Answer: 193 % of control

Question: What about the T/C (dose: 7.5 mg/kg/injection, schedule: Q01DX011 (oral), vehicle: saline) of the same molecule?
Answer: 228 % of control

Question: And the T/C (dose: 15.0 mg/kg/injection, schedule: Q01DX011 (oral), vehicle: saline)?
Answer: 157 % of control

Question: And the T/C (dose: 30.0 mg/kg/injection, schedule: Q01DX011 (oral), vehicle: saline)?
Answer: 19 % of control

Question: Which results are given for COc1cc(C(=O)O)nc(SC)n1?
Answer: T/C [2]: 115 % of control; T/C [3]: 94 % of control; T/C [4]: 88 % of control; T/C [5]: 87 % of control

Question: With Cc1ccccc1Nc1nc(N)nc(C)c1Br as the molecule, how does the T/C [2] read?
Answer: 55 % of control

Question: And the T/C [3]?
Answer: 88 % of control

Question: And the T/C [4]?
Answer: 106 % of control

Question: What about the T/C [5] of the same molecule?
Answer: 72 % of control

Question: And the T/C [6]?
Answer: 81 % of control

Question: Which results are given for CSc1ncc(Br)c(Nc2ccccc2Cl)n1?
Answer: T/C [2]: 110 % of control; T/C [3]: 104 % of control; T/C [6]: 155 % of control

Question: Which results are given for CN(C)c1ccc(/C=C/c2ccnc3ccccc23)cc1?
Answer: T/C (dose: 4.0 mg/kg/injection, schedule: Q01DX011 (ip), vehicle: water): 117 % of control; T/C (dose: 8.0 mg/kg/injection, schedule: Q01DX011 (ip), vehicle: water): 105 % of control; T/C (dose: 16.0 mg/kg/injection, schedule: Q01DX011 (ip), vehicle: water): 72 % of control

Question: C1CN1P1(N2CC2)=NP(N2CC2)(N2CC2)=NP(N2CC2)(N2CC2)=N1 was tested. Which T/C (dose: 3.0 mg/kg/injection, schedule: Q01DX011 (ip), vehicle: carboxymethylcellulose (CMC)) did it give?
Answer: 60 % of control

Question: What about the T/C (dose: 6.0 mg/kg/injection, schedule: Q01DX011 (ip), vehicle: carboxymethylcellulose (CMC)) of the same molecule?
Answer: 43 % of control

Question: And the T/C (dose: 6.0 mg/kg/injection, schedule: Q01DX011 (ip), vehicle: methylcellulose (MC))?
Answer: 17 % of control and 21 % of control

Question: And the T/C (dose: 12.0 mg/kg/injection, schedule: Q01DX011 (ip), vehicle: carboxymethylcellulose (CMC))?
Answer: 9 % of control

Question: For CC1CCC(n2cnc3c(Cl)ncnc32)O1 (centres undefined), which T/C (dose: 3.7 mg/kg/injection, schedule: Q01DX011 (ip), vehicle: carboxymethylcellulose (CMC)) is on record?
Answer: 58 % of control

Question: And the T/C (dose: 7.5 mg/kg/injection, schedule: Q01DX011 (ip), vehicle: carboxymethylcellulose (CMC))?
Answer: 35 % of control

Question: What about the T/C (dose: 15.0 mg/kg/injection, schedule: Q01DX011 (ip), vehicle: carboxymethylcellulose (CMC)) of the same molecule?
Answer: 63 % of control

Question: What about the T/C [7] of the same molecule?
Answer: 15 % of control and 23 % of control

Question: What about the T/C [8] of the same molecule?
Answer: 5 % of control

Question: Which results are given for c1nc(N2CC2)c2cnn(C3CCCCO3)c2n1 (centres undefined)?
Answer: T/C (dose: 1.5 mg/kg/injection, schedule: Q01DX011 (ip), vehicle: other): 101 % of control; T/C (dose: 3.0 mg/kg/injection, schedule: Q01DX011 (ip), vehicle: other): 102 % of control; T/C (dose: 6.0 mg/kg/injection, schedule: Q01DX011 (ip), vehicle: other): 81 % of control; T/C (dose: 12.0 mg/kg/injection, schedule: Q01DX011 (ip), vehicle: other): 99 % of control; T/C (dose: 12.5 mg/kg/injection, schedule: Q01DX011 (ip), vehicle: saline): 30 % of control; T/C [9]: 113 % of control; T/C [1]: 45 % of control

Question: CCCCNC(=O)c1n[se]nc1NC(N)=O was tested. Which T/C (dose: 4.0 mg/kg/injection, schedule: Q01DX011 (ip), vehicle: carboxymethylcellulose (CMC)) did it give?
Answer: 94 % of control

Question: And the T/C (dose: 8.0 mg/kg/injection, schedule: Q01DX011 (ip), vehicle: carboxymethylcellulose (CMC))?
Answer: 91 % of control

Question: And the T/C (dose: 16.0 mg/kg/injection, schedule: Q01DX011 (ip), vehicle: carboxymethylcellulose (CMC))?
Answer: 61 % of control

Question: And the T/C (dose: 37.5 mg/kg/injection, schedule: Q01DX011 (ip), vehicle: carboxymethylcellulose (CMC))?
Answer: 166 % of control

Question: And the T/C (dose: 50.0 mg/kg/injection, schedule: Q01DX011 (ip), vehicle: carboxymethylcellulose (CMC))?
Answer: 119 % of control

Question: Nc1n[nH]c(N)n1 was tested. Which T/C (dose: 300.0 mg/kg/injection, schedule: Q01DX011 (ip), vehicle: methylcellulose (MC)) did it give?
Answer: 55 % of control

Question: And the T/C [10]?
Answer: 58 % of control

Question: What about the T/C (dose: 500.0 mg/kg/injection, schedule: Q01DX011 (ip), vehicle: methylcellulose (MC)) of the same molecule?
Answer: 44 % of control

Question: With COc1cc2c3c(c4cc(OC)c(OC)cc4c2cc1OC)CN1CCC[C@H]1C3 as the molecule, how does the T/C (dose: 8.8 mg/kg/injection, schedule: Q01DX006 (ip), vehicle: water) read?
Answer: 89 % of control and 71 % of control

Question: What about the T/C (dose: 20.0 mg/kg/injection, schedule: Q01DX006 (ip), vehicle: water) of the same molecule?
Answer: 50 % of control

Question: For CO[C@@H]1[C@@H](OC2OC(C)C(OC3CC(C)(O)C(OC(=O)CC(C)C)C(C)O3)C(N(C)C)C2O)[C@@H](CC=O)C[C@@H](C)C(=O)/C=C/C2O[C@H]2C[C@@H](C)OC(=O)C[C@H]1OC(C)=O (some centres undefined), which T/C [11] is on record?
Answer: 66 % of control

Question: What about the T/C (dose: 250.0 mg/kg/injection, schedule: Q01DX011 (ip), vehicle: other) of the same molecule?
Answer: 60 % of control and 63 % of control

Question: What about the T/C [12] of the same molecule?
Answer: 24 % of control and 33 % of control

Question: And the T/C (dose: 350.0 mg/kg/injection, schedule: Q01DX011 (ip), vehicle: other)?
Answer: 45 % of control

Question: Which results are given for Cc1cccc(CSc2ncnc3nc[nH]c23)n1?
Answer: T/C (dose: 12.5 mg/kg/injection, schedule: Q01DX011 (ip), vehicle: methylcellulose (MC)): 66 % of control; T/C [13]: 51 % of control; T/C [14]: 17 % of control; T/C [15]: 6 % of control

Question: With CCN(CC)C(=O)CSc1nc(N)nc2nc[nH]c12 as the molecule, how does the T/C [13] read?
Answer: 45 % of control

Question: And the T/C [14]?
Answer: 12 % of control

Question: And the T/C [15]?
Answer: 10 % of control

Question: What about the T/C (dose: 200.0 mg/kg/injection, schedule: Q01DX011 (ip), vehicle: methylcellulose (MC)) of the same molecule?
Answer: 3 % of control and 13 % of control

Question: And the T/C [10]?
Answer: 4 % of control

Question: O/N=C1\CCCC\C1=N/O was tested. Which T/C [11] did it give?
Answer: 55 % of control

Question: What about the T/C [12] of the same molecule?
Answer: 4 % of control

Question: What does the source list for CN(C)CCCCl?
Answer: T/C [9]: 81 % of control; T/C (dose: 50.0 mg/kg/injection, schedule: Q01DX011 (ip), vehicle: other): 83 % of control; T/C (dose: 100.0 mg/kg/injection, schedule: Q01DX011 (ip), vehicle: other): 98 % of control

Question: With COc1cc2c3c(c4ccc(OC)c(OC)c4c2cc1OC)CN1CCC[C@@H]1C3 as the molecule, how does the T/C (dose: 5.0 mg/kg/injection, schedule: Q02DX006 (ip), vehicle: water) read?
Answer: 65 % of control

Question: What about the T/C (dose: 10.0 mg/kg/injection, schedule: Q02DX006 (ip), vehicle: water) of the same molecule?
Answer: 52 % of control

Question: What about the T/C (dose: 15.0 mg/kg/injection, schedule: Q02DX006 (ip), vehicle: water) of the same molecule?
Answer: 33 % of control

Question: What about the T/C (dose: 20.0 mg/kg/injection, schedule: Q02DX006 (ip), vehicle: water) of the same molecule?
Answer: 21 % of control

Question: For CC(=O)OCC1OC(n2cnc3c(Cl)nc(Cl)nc32)C(OC(C)=O)C1OC(C)=O (centres undefined), which T/C [7] is on record?
Answer: 85 % of control

Question: And the T/C [8]?
Answer: 92 % of control

Question: And the T/C (dose: 120.0 mg/kg/injection, schedule: Q01DX011 (ip), vehicle: carboxymethylcellulose (CMC))?
Answer: 61 % of control

Question: And the T/C (dose: 240.0 mg/kg/injection, schedule: Q01DX011 (ip), vehicle: carboxymethylcellulose (CMC))?
Answer: 61 % of control

Question: For CC(CN1CCN(C)CC1)CN1c2ccccc2Sc2ccc(C(F)(F)F)cc21 (centres undefined), which T/C (dose: 17.5 mg/kg/injection, schedule: Q01DX011 (ip), vehicle: methylcellulose (MC)) is on record?
Answer: 64 % of control

Question: And the T/C (dose: 35.0 mg/kg/injection, schedule: Q01DX011 (ip), vehicle: methylcellulose (MC))?
Answer: 52 % of control

Question: What about the T/C (dose: 70.0 mg/kg/injection, schedule: Q01DX011 (ip), vehicle: methylcellulose (MC)) of the same molecule?
Answer: 58 % of control

Question: Which results are given for CC(=O)[C@H]1CC[C@H]2[C@@H]3CCC4=CC(=O)C=C[C@]4(C)[C@H]3C(=O)C[C@]12C?
Answer: T/C (dose: 66.0 mg/kg/injection, schedule: Q01DX011 (sc), vehicle: steriod suspending solution): 62 % of control and 74 % of control; T/C (dose: 132.0 mg/kg/injection, schedule: Q01DX011 (sc), vehicle: steriod suspending solution): 37 % of control and 58 % of control; T/C (dose: 264.0 mg/kg/injection, schedule: Q01DX011 (sc), vehicle: steriod suspending solution): 25 % of control and 44 % of control; T/C (dose: 528.0 mg/kg/injection, schedule: Q01DX011 (sc), vehicle: steriod suspending solution): 28 % of control and 35 % of control
